Assays:
[1] = tested on: hypoxic pulmonary hypertension model rats; assay: Hypoxic pulmonary hypertension model rats, oral (gavage) treatment for 28 days; assay type: in vivo, SD rats; settings: hypoxic PAH rats, po
Experimental: An animal model of pulmonary hypertension in SD rats was established in a hypoxic and low-pressure environment, and compound 1 was administered by gavage at the same time for treatment. The rat pulmonary artery hemodynamics and right heart hypertrophy index RVHI were measured to determine whether compound 1 has effects of improving hypoxic pulmonary hypertension.
(§1) SD rats (purchased from Shanghai Xipuer-Bikai Experimental Animal Co., Ltd.), male, weighing 180-200 g, were bred in an artificially controlled animal room with each 12 hours of light and darkness at a temperature of 20-25° C. and relative humidity of 50-60%, and allowed ad libitum to food and water. The rats were randomly divided into groups according to the experimental requirements, and kept separately in cages, with 3 to 4 rats per cage. All relevant operations of animal experiments are in compliance with the provisions of “Guidelines for the Management and Use of Laboratory Animals” of China.
The hypoxic PAH model was established by placing SD male rats in a fully-automatically regulated low-pressure hypoxic chamber (atmospheric pressure of about 50 kPa, oxygen concentration of 10%) for 8 hours a day for 28 days. The rats in the blank control group were kept in a normoxic environment.
The experimental rats of hypoxic PAH model were divided into 8 groups, namely blank control group, model group, Sidenafil (25 mg/kg) group, compound 1 (10 mg/kg) group, compound 1 (25 mg/kg) group, compound 1 (50 mg/kg) group, compound 1 (100 mg/kg) group, and compound 1 (200 mg/kg) group. The concentration in the parentheses of the group name represents the administration concentration of the compound or drug. In hypoxia-induced PAH experiments, Sidenafil is often used as a positive drug, which can reduce the pulmonary artery pressure in rats and reduce the right ventricular hypertrophy and vascular remodeling. In this experiment, 25 mg/kg of Sidenafil was used as the positive drug. Both the positive drugs Sidenafil and Compound 1 were dissolved in physiological saline and formulated into solutions of different concentrations according to different administration concentrations. The rats were continuously administered for 28 days with an administration volume of 5 ml/kg. Rats in the control and model groups were given the corresponding volume of physiological saline solution via gavage. The specific grouping can be found in Table 5.
After the administration was completed, the POWERLAB biological information acquisition and treatment system was started, and the right cardiac catheter filled with 0.2% heparin sodium (Beijing Solo Technology Co. Ltd.) in normal saline was connected to the pressure transducer and then zero-calibrationed for use. After 20% urethane (Shanghai Yuanye Biotechnology Co., Ltd.) solution was injected into the abdominal cavity of the rats for anesthesia, the right neck hair was shaved and the right jugular vein was isolated and exposed. […] After the typical right ventricular waveform appeared and stabilized for a while, the waveform was recorded, and then the pressure value was read by Powerlab biological information acquisition and processing system (ADInstruments).
After the pressure was measured, the catheter was taken out, and the rat was dissected immediately to take out the heart and lung tissues. The right ventricle (RV) and the left ventricle and interventricular septum (LV+S) were separated and weighed, and the right heart hypertrophy index RVHI=RV/(LV+S) was calculated. The lung lobe tissue from the right lower part of the lung was separated, soaked in 4% paraformaldehyde (Sigma) for about 1 week to prepare a paraffin section with a thickness of 3 μm, and then conducted to hematoxylin-eosin staining (Wuhan Guge Biotechnology Co., Ltd.). […]

[2] = tested on: monocrotaline-induced pulmonary hypertension model rats (MCT-PAH); assay: Monocrotaline-induced pulmonary hypertension model rats, aerosol inhalation treatment; assay type: in vivo, SD rats; settings: inh, 28 days
Experimental: A pulmonary hypertension animal model of SD rats was established by subcutaneous injection of monocrotaline (MCT). The compound 1 was administered by aerosol inhalation for treatment. The pulmonary artery hemodynamics and right heart hypertrophy index RVHI of rats were tested to determine whether compound 1 administered by aerosol inhalation has effects of improving monocrotaline-induced pulmonary hypertension.
as §1
In the second experiment, the rats were divided into 5 groups, namely the control group, model group, positive control Tyvaso (1.62 μg/kg) group, compound 1 (10 mg/kg) group and compound 1 (30 mg/kg) group. On the first day of the experiment, normal saline was injected subcutaneously into the back of the neck of the rats in the blank control group, and monocrotaline (Chengdu Purifa Biotechnology Co., Ltd.) solution was injected in the other groups at a dosage of 60 mg/kg. Compound 1 and Tyvaso were administered by aerosol inhalation, that is, the compound was firstly dissolved in physiological saline, and then the solution was prepared into an aerosol with a nebulizer to be inhaled into the mouth and nose of rats. The rats in the control group and the model group only inhaled an aerosol made of physiological saline. The rats were continuously administered for 28 days, and the concentration in the parentheses of the group name represents the administered concentration of the compound. Specific groupings can be found in Table 9. After the administration, the pulmonary vascular hemodynamics and RVHI were determined in the same way as the experiment method in Example 1.

Structure (SMILES): CCc1cccc(C(O)CO)c1 (stereo not drawn) [Compound 1, 1-(3-ethylphenyl)-1,2-ethylene glycol]
- RVSP ([1]; 10 mg/kg): 70.28 ± 4.64 mmHg
- mPAP ([1]; 10 mg/kg): 25.26 ± 3.46 mmHg
- RVHI ([1]; 10 mg/kg, RV/(LV+S)): 0.467 ± 0.030
- 2 × MT/ED ([1]; 10 mg/kg, medium thickness ratio of small pulmonary arteries): 0.361 ± 0.020
- 2 × MT/ED ([1]; 25 mg/kg): 0.323 ± 0.022
- RVHI ([1]; 25 mg/kg): 0.472 ± 0.026
- RVSP ([1]; 25 mg/kg): 71.34 ± 2.12 mmHg
- mPAP ([1]; 25 mg/kg): 22.36 ± 1.78 mmHg
- 2 × MT/ED ([1]; 50 mg/kg): 0.304 ± 0.021
- RVHI ([1]; 50 mg/kg): 0.456 ± 0.019
- RVSP ([1]; 50 mg/kg): 67.46 ± 4.28 mmHg
- mPAP ([1]; 50 mg/kg): 21.66 ± 3.28 mmHg
- 2 × MT/ED ([1]; 100 mg/kg): 0.266 ± 0.014
- RVHI ([1]; 100 mg/kg): 0.301 ± 0.017
- RVSP ([1]; 100 mg/kg): 59.12 ± 2.12 mmHg
- mPAP ([1]; 100 mg/kg): 15.89 ± 1.12 mmHg
- 2 × MT/ED ([1]; 200 mg/kg): 0.241 ± 0.011
- RVHI ([1]; 200 mg/kg): 0.254 ± 0.022
- RVSP ([1]; 200 mg/kg): 54.38 ± 2.98 mmHg
- mPAP ([1]; 200 mg/kg): 15.21 ± 1.92 mmHg
- 2 × MT/ED ([2]; 10 mg/kg): 0.335 ± 0.034
- RVHI ([2]; 10 mg/kg): 0.235 ± 0.026
- RVSP ([2]; 10 mg/kg): 35.92 ± 3.74 mmHg
- mPAP ([2]; 10 mg/kg): 11.46 ± 2.48 mmHg
- RVHI ([2]; 10 mg/kg, listed as compound 1, 10 mg/kg): 0.235±0.026
- 2 × MT/ED ([2]; 30 mg/kg): 0.319 ± 0.035
- RVHI ([2]; 30 mg/kg): 0.204 ± 0.035
- RVSP ([2]; 30 mg/kg): 31.18 ± 4.62 mmHg
- mPAP ([2]; 30 mg/kg): 8.06 ± 2.59 mmHg
- RVHI ([2]; 30 mg/kg, listed as compound 1, 30 mg/kg): 0.204±0.035
